From the Biogen ADME set (Fang et al. 2023)
In brackets after ≈: the same amount, converted by molar mass.

Conditions: for aqueous solubility: pH 6.8

| Compound | fraction unbound, human plasma | fraction unbound, rat plasma | intrinsic clearance, human liver microsomes | intrinsic clearance, rat liver microsomes | MDR1-MDCK efflux ratio | aqueous solubility |
| --- | --- | --- | --- | --- | --- | --- |
| Cc1cc(N2CCCC2c2cc(CCC(=O)O)cc(C)n2)ncn1 (stereo not given) | 1 | 1 | ≤ 4.74 mL/min/kg | ≤ 10.7 mL/min/kg | – | – |
| Cc1nc(C(C)C)sc1C(=O)Nc1nc(C(C)(C)C)cs1 | – | – | 27.8 mL/min/kg | 398 mL/min/kg | 0.306 | 11.8 µg/mL (≈ 36.4 µM) |
| CCN(Cc1ccccc1)C(=O)c1ccc(O)cc1O | – | – | ≤ 4.74 mL/min/kg | 726 mL/min/kg | 0.83 | 46.7 µg/mL (≈ 172 µM) |
| Cc1ccc(OCC(=O)Nc2cc(C)on2)nc1 | – | – | ≤ 4.74 mL/min/kg | ≤ 10.7 mL/min/kg | – | – |
| CC(C)N1CCC(O)(c2ccccc2F)CC1 | – | – | ≤ 4.74 mL/min/kg | 362 mL/min/kg | 0.537 | 41.5 µg/mL (≈ 175 µM) |
| O=C(O)C1CN(Cc2ccc(OCc3ccc(Cl)c(Cl)c3)cc2)C1 | – | – | ≤ 4.74 mL/min/kg | ≤ 10.7 mL/min/kg | 4.1 | – |
| O=c1c2c(Cl)ccc(Cl)c2ncn1Cc1cc(O)ncn1 | – | – | ≤ 4.74 mL/min/kg | ≤ 10.7 mL/min/kg | – | – |
| Cc1ccc(C(=O)N(C)C)cc1NS(C)(=O)=O | – | – | ≤ 4.74 mL/min/kg | ≤ 10.7 mL/min/kg | 8.3 | 50.3 µg/mL (≈ 196 µM) |
| O=C1NCN(c2ccccc2)C12CCN(CCCOc1ccc(F)cc1)CC2 | – | – | 74.3 mL/min/kg | 548 mL/min/kg | – | 50.9 µg/mL (≈ 133 µM) |
| NCc1ccc(Oc2ccccc2)nc1 | – | – | 20.7 mL/min/kg | 50.5 mL/min/kg | – | 22 µg/mL (≈ 110 µM) |
| C=CC(=O)N1CCC[C@H](n2c(=O)n(-c3ccc(Oc4ccccc4)cc3)c3c(N)ncnc32)C1 | 0.0963 | 0.0189 | 166 mL/min/kg | 516 mL/min/kg | 5.79 | 56.4 µg/mL (≈ 123 µM) |
| O=C(COCc1nc2ccccc2s1)N1CCC(n2c(=O)[nH]c3ccccc32)CC1 | – | – | 68.6 mL/min/kg | 1020 mL/min/kg | – | – |
| NC1CC(NC(=O)c2ccc(-c3cn[nH]c3)cn2)C12CCC2 (stereo not given) | 0.513 | – | 8.51 mL/min/kg | – | 8.96 | – |
| Cc1nc2ccccc2n1Cc1ccc(C(=O)O)cc1 | – | – | ≤ 4.74 mL/min/kg | ≤ 10.7 mL/min/kg | 2.75 | 35.4 µg/mL (≈ 133 µM) |
| O=C(NCc1ccc(O)cc1)Nc1ccncc1F | – | – | ≤ 4.74 mL/min/kg | ≤ 10.7 mL/min/kg | – | 37.8 µg/mL (≈ 145 µM) |
| O=c1n(Cc2ccncc2)nc2n1-c1cc(Cl)ccc1C1=NCCN12 | – | – | 20 mL/min/kg | 143 mL/min/kg | – | – |
| O=C(CN1CCCC1=O)NCC1(CO)CCCC1 | – | – | ≤ 4.74 mL/min/kg | ≤ 10.7 mL/min/kg | 2.26 | – |
| c1sc(NCC2CCCO2)nc1C12CC3CC(CC(C3)C1)C2 (stereo not given) | 0.0008 | – | 45.7 mL/min/kg | – | 0.537 | – |
| O=C(O)c1ccc(COc2ccc(/C=C3\SC(=O)N(Cc4ccc(F)cc4)C3=O)cc2)cc1 | – | – | – | – | – | 0.99 µg/mL (≈ 2.14 µM) |
| CC1=C(C(=O)Nc2cc3cn[nH]c3cc2F)C(c2ccc(C(F)(F)F)cc2)CC(=O)N1 (stereo not given) | – | – | 51 mL/min/kg | 120 mL/min/kg | 56.3 | – |
| O=C(Nc1nc2cccc(-c3ccc(CN4CCS(=O)(=O)CC4)cc3)n2n1)C1CC1 | 0.48 | 0.4 | ≤ 4.74 mL/min/kg | 19.4 mL/min/kg | 136 | 47.1 µg/mL (≈ 111 µM) |
| Cc1ccc(F)cc1C(=O)N1CCc2c(nc(-c3ccccn3)nc2N(C)C)C1 | – | – | 8.74 mL/min/kg | 61.6 mL/min/kg | – | 25.7 µg/mL (≈ 65.8 µM) |
| CN(c1ccccc1N)S(C)(=O)=O | – | – | 10.2 mL/min/kg | 24.1 mL/min/kg | – | – |
| c1cncc(-c2nnc3n2[C@H]2CN(Cc4cccs4)C[C@H]2CC3)c1 | – | – | 7.21 mL/min/kg | 343 mL/min/kg | 2.69 | – |
| CC(C)c1noc2nc(C3CC3)cc(C(=O)N3CC[C@H](N)C3)c12 | – | – | ≤ 4.74 mL/min/kg | ≤ 10.7 mL/min/kg | 128 | 34.1 µg/mL (≈ 108 µM) |
| COC(=O)CC1=NN(c2ccc(OC)cc2)C(=O)/C1=C(/C)NCc1ccc(OC)cc1 | – | – | 272 mL/min/kg | 503 mL/min/kg | 1.26 | 2.28 µg/mL (≈ 5.38 µM) |
| O=c1c(N2CCCC2)c(Cl)cnn1-c1ccccc1 | – | – | – | – | – | 17.1 µg/mL (≈ 62.1 µM) |

Further lines, results first:

| fraction unbound, human plasma | fraction unbound, rat plasma | intrinsic clearance, human liver microsomes | intrinsic clearance, rat liver microsomes | MDR1-MDCK efflux ratio | aqueous solubility | Compound |
| --- | --- | --- | --- | --- | --- | --- |
| – | – | – | – | – | 23.1 µg/mL (≈ 113 µM) | N#CCCn1nc(C(F)(F)F)cc1O |
| – | – | ≤ 4.74 mL/min/kg | 31.4 mL/min/kg | 1.42 | 47 µg/mL (≈ 157 µM) | CC(=O)N1CCC[C@H]1C(=O)Nc1cccc(OC(F)F)c1 |
| – | – | 6.14 mL/min/kg | 26 mL/min/kg | 1.31 | 6.44 µg/mL (≈ 16.8 µM) | CC1(C)OCCn2c1nc1c(N3CCOCC3)nc(-c3cnc(N)nc3)nc12 |
| – | – | 48 mL/min/kg | 214 mL/min/kg | 0.559 | 9.73 µg/mL (≈ 43.4 µM) | Cc1cc(C)cc(Oc2cc(C#N)ccn2)c1 |
| – | – | ≤ 4.74 mL/min/kg | 45.1 mL/min/kg | 82.7 | 23.6 µg/mL (≈ 79.8 µM) | O=C(NCCc1nnc2n1CCC2)c1ccc2c(c1)CCC2 |
| 0.696 | 0.845 | 25.9 mL/min/kg | – | 0.239 | – | O=C(NC1CCNCC1)c1ccc2[nH]ncc2c1 |
| – | – | 109 mL/min/kg | 144 mL/min/kg | – | 5.43 µg/mL (≈ 15.6 µM) | CC(=O)n1c(/C=C2/N=C(c3ccc(F)cc3)OC2=O)cc2ccccc21 |
| – | – | 46.5 mL/min/kg | 357 mL/min/kg | 14 | 35.2 µg/mL (≈ 104 µM) | CC(=O)N1CCC(Cn2ccnc2-c2cc3ccccc3s2)CC1 |
| – | – | ≤ 4.74 mL/min/kg | 41.2 mL/min/kg | 2.95 | 50.1 µg/mL (≈ 158 µM) | Cn1cc(NC(=O)c2ccc(OCC3CCOCC3)nc2)cn1 |
| – | – | 43.3 mL/min/kg | 368 mL/min/kg | – | 2.49 µg/mL (≈ 6.7 µM) | Cc1cc(C(=O)NC2CCN(c3ncnc4sc(C)c(C)c34)CC2)on1 |
| – | – | 30 mL/min/kg | 389 mL/min/kg | 1.61 | 13.6 µg/mL (≈ 34.7 µM) | CN(C)c1ccc(C(=O)N2CCN3C(=O)N(Cc4ccccc4)C(=O)[C@H]3C2)cc1 |
| – | – | ≤ 4.74 mL/min/kg | 94.4 mL/min/kg | 4.95 | 45.4 µg/mL (≈ 148 µM) | Cc1cc(C)n(-c2ccc(C(=O)NCc3cccnc3)cc2)n1 |
| – | – | 131 mL/min/kg | 1110 mL/min/kg | 9.61 | 35.1 µg/mL (≈ 78.9 µM) | CS(=O)(=O)N(CC(=O)Nc1ccccc1C(=O)NCc1ccco1)c1ccc(F)cc1 |
| – | – | ≤ 4.74 mL/min/kg | 21.5 mL/min/kg | 0.755 | – | CC#CCCNC(=O)c1cccnc1C |
| – | – | ≤ 4.74 mL/min/kg | 231 mL/min/kg | 0.757 | 41.2 µg/mL (≈ 163 µM) | O=C(NCC1(c2ccccc2)CC1)c1cccnc1 |
| – | – | 18.3 mL/min/kg | ≤ 10.7 mL/min/kg | 50.8 | – | CCc1c2c(nc3ccc(O)cc13)-c1cc3c(c(=O)n1C2)COC(=O)[C@]3(O)CC |

| fraction unbound, human plasma | fraction unbound, rat plasma | intrinsic clearance, human liver microsomes | intrinsic clearance, rat liver microsomes | MDR1-MDCK efflux ratio | aqueous solubility | Compound |
| --- | --- | --- | --- | --- | --- | --- |
| – | – | ≤ 4.74 mL/min/kg | 16.2 mL/min/kg | 0.72 | 27.5 µg/mL (≈ 112 µM) | O=C(CN1CCc2ccccc21)N1CCNC1=O |
| – | – | 54 mL/min/kg | 1790 mL/min/kg | – | – | CN(C)c1ccnc(NCc2ccc(F)cc2)n1 |
| – | – | 9.63 mL/min/kg | 49.2 mL/min/kg | 24.6 | – | N#Cc1ccc2ncnc(N[C@H]3CC[C@H](N4CCOCC4)CC3)c2c1 |
| – | – | ≤ 4.74 mL/min/kg | 298 mL/min/kg | 10.3 | – | CC(=O)N1CCN(C(=O)CS(=O)(=O)C23CC4CC(CC(C4)C2)C3)CC1 |
| – | – | 61.6 mL/min/kg | 1090 mL/min/kg | – | – | O=C(Nc1ncccc1OC(F)F)C1CCCCC1 |
| 0.167 | 0.123 | 37.9 mL/min/kg | 545 mL/min/kg | 13 | – | O=C(Nc1cccc2ncccc12)[C@H]1CCCN(S(=O)(=O)c2ccccc2)C1 |
| – | – | – | – | 0.492 | 0.71 µg/mL (≈ 2.13 µM) | CC(C)c1ccccc1OC(=O)NCCc1ccc2ccccc2c1 |
| 0.00426 | 0.00652 | 162 mL/min/kg | 1540 mL/min/kg | – | – | Cc1cc(C)c2c(N)c(C(=O)NCc3ccc(Cl)cc3)sc2n1 |
| – | – | 12.2 mL/min/kg | 97.5 mL/min/kg | – | – | Cn1nccc1C(=O)C1CCN(C(=O)c2cccs2)CC1 |
| – | – | – | – | 0.625 | – | CCOC(=O)CCN1CCC=C(Br)C1 |
| – | – | ≤ 4.74 mL/min/kg | 25.8 mL/min/kg | 0.711 | – | COc1ccnc(N2CC(O)(C3CC3)C2)n1 |
| – | – | 14.9 mL/min/kg | 104 mL/min/kg | 0.339 | 3.2 µg/mL (≈ 9.62 µM) | Fc1cncc(-c2cnc(NCc3ccc(Cl)c(F)c3)nc2)c1 |
| – | – | 10.5 mL/min/kg | 65.8 mL/min/kg | 0.59 | 20.5 µg/mL (≈ 87 µM) | Cc1ccncc1-c1ccc(-c2ccn[nH]2)cc1 |
| – | – | 52.5 mL/min/kg | 508 mL/min/kg | – | 47.1 µg/mL (≈ 184 µM) | Cc1ccc(OCC(=O)Nc2ccncc2)c(C)c1 |
| – | – | – | – | – | 53.2 µg/mL (≈ 170 µM) | CCC1=Nc2c(cnn2-c2cccc(Cl)c2)C2=NCCCN12 |
| – | – | 166 mL/min/kg | 111 mL/min/kg | 0.246 | 30.3 µg/mL | COc1ccc(-c2nc(CC(N)=O)sc2C)cc1.Cl |
